In patent publication US20250296942A1, “Phosphonate-Based Coordination Complexes and Methods of Preparation and Use Thereof” (University of Puerto Rico, priority 2021, published 2025):

Columns and labels:
[1] = Dissolution of ZOLE and ZOLE-based BPCCs in PBS (UV-Vis 208 nm); assay type: physicochemical
Method: Rate measurements were recorded for the reagent grade ZOLE, ZOLE-Ca forms I and II, ZOLE-Mg forms I and II, ZOLE-Zn forms I and II in PBS, against a reagent blank. […] Absorbance measurements were performed on an Agilent Technologies Cary Series UV-Vis Spectrophotometer, Cary 100 UV-Vis model; using the UV Cary Scan software version v.20.0.470. All measurements were performed with a 400-200 nm scan.
Dissolution of ZOLE-based BPCCs was compared to that of ZOLE (active ingredient of Reclast@), to assess the structural stability of these materials in PBS and FaSSGF.
(§4) Dissolution assays employed a maximum concentration of 0.05 mg/mL of ZOLE, which corresponded to the clinically utilized dosage of these BP.

[2] = system: normal osteoblast-like hFOB 1.19 cell line; experiment: AlamarBlue cytotoxicity, ZOLE and nano-Ca@ZOLE, hFOB 1.19; assay type: cell-based, human; details: for IC50: Homo sapiens
Method: (§1) Cell culture methods: The MDA-MB-231 cell line was cultured in DMEM, 1% Pen-Strep, and 10% FBS at 37° C. in 5% CO2. The hFOB 1.19 cell line was cultured in 1:1 DMEM:F-12, 0.3 mg/mL G418, and 10% FBS at 34° C. in 5% CO2. Cell passages were performed weekly at 80% of cell confluency, and media was exchanged twice a week.
(§2) Cell treatments: Both cell lines were treated with ZOLE (control) and nano-Ca@ZOLE (experimental). First, to determine the half-maximal inhibitory concentration (IC50) two-fold serial dilutions of ZOLE (0-200 μM) were prepared. Both cell lines (MDA-MB-231 and hFOB 1.19) were seeded in 96 well plates at 2.5×10^5 cell/mL. The cells were incubated for 24 h at 37° C. (MDA-MB-231) and 34° C. (hFOB 1.19), respectively. After an initial incubation period, both cell lines were treated with 100 μL of the ZOLE solutions previously prepared, and incubation was performed for 24, 48, and 72 h at the respective incubation temperatures. For both cell lines, media (MDA-MB-231: DMEM, Pen-Strep and hFOB 1.19: DMEM, F-12, G418) were used with control groups. AlamarBlue® assay was utilized to determine cell proliferation; for this, 10% of AlamarBlue® solution in PBS was prepared. Finally, media was removed from the 96 well plates, 100 μL of 10% AlamarBlue® solution was added, and the cells were incubated for 4 h at the conditions previously set forth herein. After the AlamarBlue® assay, fluorescence (λexc=560 nm, m=590 nm) was evaluated employing an Infinite M200 PRO Tecan Microplate Reader. Live cells were assessed comparing viability of the control group (100%) with cells treated with the ZOLE solutions. The nonlinear regression method using Graph Pad Prism 8 was applied to fit the dose-response curves (% cell live vs concentration) and determined the IC50 values for ZOLE.
(§3) The percentage of relative cell live (% RCL) for ZOLE (control) and nano-Ca@ZOLE (experimental) were investigated at selected concentrations (1.9, 3.8, 7.5, and 15 μM) in both cell lines. Treatments at these concentrations were carried out at 24, 48, and 72 h for ZOLE and nano-Ca@ZOLE. The cell seeding and AlamarBlue® assay were completed as described above for IC50 determination in both cell lines. Graph Pad Prism 8 was utilized to plot the % RCL found at concentrations of 1.9, 3.8, 7.5, and 15 μM after 24, 48, and 72 h of treatment. All experiments were performed in triplicates and the data was statistically treated using mean, standard deviation, and the coefficient of variation percentage (% CV).
In this Example, the human breast cancer MDA-MB-231 and the osteoblast-like hFOB 1.19 cell lines were selected to assess cytotoxicity effects of nano-Ca@ZOLE nanocrystals. […]

[3] = Dissolution of ZOLE and ZOLE-Ca form II in FaSSGF; assay type: physicochemical
Method: For ZOLE and ZOLE-Ca form II, dissolution measurements were performed in fasted-state simulated gastric fluid (FaSSGF). […] Absorbance measurements were performed on an Agilent Technologies Cary Series UV-Vis Spectrophotometer, Cary 100 UV-Vis model; using the UV Cary Scan software version v.20.0.470. All measurements were performed with a 400-200 nm scan.
as §4
To further investigate if the ZOLE-based BPCCs presented pH-dependent degradation, dissolution of ZOLE-Ca Form II in FaSSGF was performed.

[4] = Hydroxyapatite (HA) binding assay of ZOLE and nano-Ca@ZOLE
Method: Hydroxyapatite (HA) binding assay: For the binding assay of nano-Ca@ZOLE, 20 mg of hydroxyapatite (HA) were exposed to 3 mL of a nano-Ca@ZOLE in PBS solution (0.5 mg/mL), for 0-11 days at 37° C. As control groups, nano-Ca@ZOLE and HA, both in PBS, were employed. As a comparative method, the binding assay for ZOLE “as received” was performed employing the same parameters as for the nanocrystals. For the experimental groups (HA-nano-Ca@ZOLE and HA-ZOLE), collection was performed in duplicate. Samples were collected each day for 11 consecutive days. After each time point, supernatant was collected and centrifuged (1,500 rpm, 8 min). Absorbance measurements were performed at 208 nm (λmax) to determine the percentage of ZOLE and nano-Ca@ZOLE bound to HA. Solid samples of HA, HA-ZOLE, and HA-nano-Ca@ZOLE were characterized by EDS.
The ability of nano-Ca@ZOLE to bind under simulated physiological conditions to the main constituent of the bone microenvironment, hydroxyapatite (HA), was probed through a binding assay. The binding to HA was determined by monitoring the decrease in the ZOLE concentration of the supernatant using absorption measurements (λmax=208 nm).

[5] = system: human breast cancer MDA-MB-231 cell line; experiment: AlamarBlue cytotoxicity, ZOLE and nano-Ca@ZOLE, MDA-MB-231; assay type: cell-based; details: for IC50: Homo sapiens
Method: as §1, §2, §3
In this Example, the human breast cancer MDA-MB-231 and the osteoblast-like hFOB 1.19 cell lines were selected to assess cytotoxicity effects of nano-Ca@ZOLE nanocrystals. […] While, the immortalized human fetal hFOB 1.19 cell line is a homogeneous model that allows the study of osteoblast differentiation, these cells were employed to imitate the normal human bone microenvironment. To determine the IC50 values against MDA-MB-231 and hFOB 1.19 cell lines, concentrations of 0-200 μM of ZOLE were employed.

For O=P(O)(O)C(O)(Cn1ccnc1)P(=O)(O)O [ZOLE, zoledronic acid], the “time to reach maximum dissolution” value ([1]; PBS pH 7.4) was 30 min, the “dissolution / equilibrium solubility (maximum ZOLE released)” value ([1]; PBS pH 7.4, 37 °C) was 100% and the “% RCL / cell death” value ([2]; 1.9-15 μM, 24, 48, 72 h) was “no significant cell death”. It also gave an IC50 ([2]; 24 h) greater than 200 µM, an IC50 ([2]; 48 h) of 86 ± 3 µM and an IC50 ([2]; 72 h) of 49 ± 4 µM. For the same compound, the “time to reach maximum dissolution” value ([3]; FaSSGF pH 1.6) was 3 h, the “dissolution / equilibrium solubility (maximum ZOLE released)” value ([3]; FaSSGF pH 1.6, 37 °C) was 100% and the “time to reach maximum binding to HA” value ([4]; PBS pH 7.4) was 8 days. For the same compound, the “maximum binding to HA” value ([4]; PBS pH 7.4, 37 °C, 0-11 days) was 82%, the “bound to HA” value ([4]; PBS pH 7.4, 37 °C, 1 day (24 h)) was 15% and the “% RCL (relative cell live)” value ([5]; 1.9 μM, time not stated) was roughly 100%. The “% RCL” value ([5]; 3.8 μM, time not stated) was roughly 100%, the “% RCL” value ([5]; 15 μM, 48 h) was 80±2% and the “% RCL” value ([5]; 15 μM, 72 h) was 58±2%. The IC50 ([5]; 24 h) was greater than 200 µM, the IC50 ([5]; 48 h) was greater than 200 µM and the IC50 ([5]; 72 h) was 35 µM.
